# Measured values: patent US20230255979A1, “METHODS OF TREATING ACUTE RESPIRATORY DISORDERS” (Bristol-Myers Squibb Company, priority 2020, published 2023)
# Entries after “also recorded” stand apart in the source; their conditions may differ.
# Assays:
# [1] = test system: peripheral blood mononuclear cell (PBMCs); assay: Cytokine assessment in PBMCs pretreated with compound, then LPS or SEB/IL-2 treatment; assay type: cell-based, human; settings: 1 h pretreatment
# [2] = test system: macrophages; assay: Cytokine production in LPS-stimulated macrophages; assay type: cell-based, human; settings: compound 4 h or 24 h
# Description: (§1) For Macrophages: monocytes were differentiated into macrophages by stimulation with 50 ng/ml of MCS-F for 5 days followed by treatment with 50 ng/ml Interferon gamma for ˜16 hours. Macrophages were then plated, allowed to acclimate for 24 hours. […] All cells were cultured at 37° C. with 5% CO2 in a humidified incubator. Supernatants were collected for further analysis. Cytokine and chemokine analysis was performed in the supernatants using Magpix magnetic beads.
# [3] = test system: monocytes; assay: Cytokine production in LPS-stimulated monocytes; assay type: cell-based, human
# Description: (§2) In addition, PBMCs were isolated from buffy coat using Ficoll gradient method and were used for monocyte enrichment without CD16 depletion with the Stem Cell technologies kit (Cat #19058). […] All cells were cultured at 37° C. with 5% CO2 in a humidified incubator.
# as §2, with “For Monocytes:” for “In addition,”, “incubator. Supernatant was collected for cytokine and chemokine analysis.” for “incubator.”
# as §1
# [4] = test system: PBMCs; assay: RT-PCR gene expression of cytokines and chemokines in LPS-treated PBMCs from HV; settings: LPS 1.5 hrs then compound 1.5 hrs
# [5] = test system: whole blood; assay: Pharmacodynamic assessment in MAD study, ex vivo LPS stimulation of whole blood (TruCulture); set-up: species or system human; settings: healthy volunteers, 150 mg, individual level data
# Description: The study consisted of escalating multiple doses in sequential groups. Thirty-seven subjects were enrolled into 5 dose level cohorts (10, 30, 60, 120, and 150 mg).
# Each subject participated in a screening phase, a treatment phase (included baseline). Eligible subjects were admitted to the study site on Day −1 and resided at the study site from Day −1 to Day 17. The first dose of study drug was administered on Day 1, under fasted conditions, according to the randomization schedule. The same QD dose was administered for the remainder of the planned treatment schedule (Day 2 to Day 14, inclusive). For each dose level cohort in Part 2, blood samples were collected on Day 1 predose (0-hour), and predose (0-hour) on Days 2, 3, 5, 8, 11, and 14. Blood samples were also collected at approximately the same time of the day as the Days 1 to 14 samples on Days 15, 17, 21, and 28. Subjects were discharged from the study site on Day 17 upon satisfactory safety review and completion of the required study procedures. For all dose level cohorts, subjects returned to the study site for outpatient visits on Day 21 and Day 28. There were no early terminations.
# Ex vivo stimulation was performed in whole blood using the TruCulture® assay system (Myriad RBM, Austin, Tex.). […] Briefly, blood (1 ml) was drawn into the LPS-containing TruCulture tubes from each subject on the days listed in the study protocol. The truculture tubes were placed in a 37° C. block thermostat for 24±1 hrs and then frozen at −70° C. Media mixed with plasma was analyzed for TNF-α and other cytokine/chemokine levels. TNF-α inhibition in ex vivo LPS-stimulated blood was measured as percent change in TNF-α levels from baseline. Percent change in other cytokines/chemokines in the ex vivo stimulation assay was also measured with respect to their baseline levels.
smiles,measurement,setting,value
CCOCc1cnc(Cl)nc1Oc1ccc2c(ccc3sc4c(c32)NC[C@@H](C)NC4=O)n1 [Compound I-82],inhibition of TNF-α in PBMCs,"[1]; LPS stimulation 24 hours, FIG. 1A",dose dependent inhibition; also recorded: decreased in a dose-dependent manner
same,inhibition of TNF-α in PBMCs,"[1]; SEB/IL-2 treatment 3 days, FIG. 1B",dose dependent inhibition; also recorded: decreased in a dose-dependent manner
same,inhibition of IL-6 in macrophages,"[2]; LPS 3 or 23 hours, FIG. 4A",dose-dependent inhibition; also recorded: inhibits
same,inhibition of IL-1β in macrophages,"[2]; LPS 3 or 23 hours, FIG. 4B",dose-dependent inhibition; also recorded: inhibits
same,inhibition of TNF-α in macrophages,"[2]; LPS (100 ng/ml) 3 or 23 hours, FIG. 3",dose-dependent inhibition; also recorded: inhibits
same,inhibition of TNF-α in monocytes,"[3]; LPS stimulation 23 hours, FIG. 2",dose dependent inhibition; also recorded: decreased in a dose-dependent manner
same,inhibition of TNF-α in monocytes,"[3]; compound 4 h or 24 h, LPS 3 or 23 hours, FIG. 3",dose-dependent inhibition; also recorded: inhibits
same,inhibition of IL-6 in monocytes,"[3]; compound 4 h or 24 h, LPS 3 or 23 hours, FIG. 4A",dose-dependent inhibition; also recorded: inhibits
same,inhibition of IL-1β in monocytes,"[3]; compound 4 h or 24 h, LPS 3 or 23 hours, FIG. 4B",dose-dependent inhibition; also recorded: inhibits
same,inhibition of gene expression of MCP-1,[4]; FIG. 5A,inhibition of gene expression; also recorded: inhibits gene expression
same,inhibition of gene expression of IL-6,[4]; FIG. 5B,inhibition of gene expression; also recorded: inhibits gene expression
same,inhibition of gene expression of IL-1β,[4]; FIG. 5C,inhibition of gene expression; also recorded: inhibits gene expression
same,inhibition of gene expression of TNF-α,[4]; FIG. 6A,inhibits gene expression
same,inhibition of gene expression of GM-CSF,[4]; FIG. 6B,inhibition of gene expression; also recorded: inhibits gene expression
same,inhibition of gene expression of ZFP36 (TTP),[4]; FIG. 6C,does not inhibit gene expression
same,inhibition of IL-6 following ex vivo LPS stimulation,[5]; FIG. 8B,inhibition of IL-6
same,inhibition of MIP-1A following ex vivo LPS stimulation,[5]; FIG. 8C,inhibition of MIP-1A
same,inhibition of MIP-1B following ex vivo LPS stimulation,[5]; FIG. 8D,inhibition of MIP-1B
